The test system of the assay is BDF1 mice, P388 leukemia ip, median survival T/C. Briefly: NCI In Vivo Anticancer Drug Screen. Data for tumor model P388 Leukemia (intraperitoneal) in B6D2F1 (BDF1) mice. The following applies: endpoint: median survival time, higher = longer survival. A digest of the protocol:
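Mice carrying the transplantable tumour receive compound or vehicle. Survival is followed in each arm, and the treated measure is divided by the vehicle measure.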

Where [1] appears, read: dose: 50.0 mg/kg/injection, schedule: Q04DX003 (ip), vehicle: saline.
[2] abbreviates: dose: 100.0 mg/kg/injection, schedule: Q04DX003 (ip), vehicle: saline.
[3] abbreviates: dose: 200.0 mg/kg/injection, schedule: Q04DX003 (ip), vehicle: saline.
The mark [4] stands for this setting: dose: 25.0 mg/kg/injection, schedule: Q01DX009 (ip), vehicle: saline.
The mark [5] stands for this setting: dose: 50.0 mg/kg/injection, schedule: Q01DX009 (ip), vehicle: saline.
The mark [6] stands for this setting: dose: 200.0 mg/kg/injection, schedule: Q01DX009 (ip), vehicle: saline.
Setting [7] is: dose: 400.0 mg/kg/injection, schedule: Q01DX009 (ip), vehicle: saline.
Where [8] appears, read: dose: 400.0 mg/kg/injection, schedule: Q04DX003 (ip), vehicle: saline.
Where [9] appears, read: dose: 100.0 mg/kg/injection, schedule: Q01DX009 (ip), vehicle: saline.
Where [10] appears, read: dose: 200.0 mg/kg/injection, schedule: Q01DX009 (ip), vehicle: saline with Tween-80.
Where [11] appears, read: dose: 100.0 mg/kg/injection, schedule: Q01DX009 (ip), vehicle: saline with Tween-80.
Where [12] appears, read: dose: 100.0 mg/kg/injection, schedule: Q04DX003 (ip), vehicle: saline with Tween-80.

Each structure is given as a SMILES string. Values joined by “and” are separate entries in the source; they are usually repeats but may differ in a detail not shown here. Equal entries are not always repeated. Inconclusive results and toxic doses are left out.

On to `O=C(Nc1cc(C(F)(F)F)ccc1Cl)Nc1cc(C(F)(F)F)c(Cl)cc1S(=O)(=O)O`, for which the T/C was 90 % of control under setting [1], 109 % of control under setting [2] and 122 % of control under setting [3].
In the case of `CC(=O)Nc1ccc(Cl)cc1C(=O)c1ccc[nH]1`, the T/C is 100 % of control under setting [4]; 95 % of control under setting [5]; 102 % of control under setting [1]; 98 % of control under setting [2]; 110 % of control under setting [6]; 100 % of control under setting [3]. For the same compound, the T/C is, setting by setting: under setting [7], 87 % of control; under setting [8], 100 % of control.
In the case of `COC(=O)C1(N)CCCC1`, the T/C is, setting by setting: under setting [9], 91 % of control; under setting [6], 104 % of control.
`CC(=O)NC1CCCC(O)C1` (configuration not stated): the T/C under setting [9] is 90 % of control; the T/C under setting [2] was 100 % of control; the T/C under setting [6] was 95 % of control; the T/C under setting [3] is 113 % of control; the T/C under setting [7] was 100 % of control; the T/C under setting [8] is 104 % of control.
Take `N#Cc1ccccc1-n1c(=O)c2cc3c(=O)n(-c4ccccc4C#N)c(=O)c3cc2c1=O`: the T/C under setting [10] was 162 % of control.
For `CNC(=S)N/N=C/c1ccc([N+](=O)[O-])s1`, for the setting “dose: 400.0 mg/kg/injection, schedule: Q01DX009 (ip), vehicle: saline with Tween-80”, the T/C is 94 % of control.
As for `O=[N+]([O-])c1cc(Br)c(N2CCCC2)cc1N1CCCC1`, the T/C is 104 % of control (dose: 100.0 mg/kg/injection, schedule: Q01DX009 (ip), vehicle: Klucel (hydroxypropylcellulose) (HPC)); 100 % of control (dose: 100.0 mg/kg/injection, schedule: Q04DX003 (ip), vehicle: Klucel (hydroxypropylcellulose) (HPC)); 100 % of control (dose: 200.0 mg/kg/injection, schedule: Q01DX009 (ip), vehicle: Klucel (hydroxypropylcellulose) (HPC)); 95 % of control (dose: 200.0 mg/kg/injection, schedule: Q04DX003 (ip), vehicle: Klucel (hydroxypropylcellulose) (HPC)); 100 % of control (dose: 400.0 mg/kg/injection, schedule: Q01DX009 (ip), vehicle: Klucel (hydroxypropylcellulose) (HPC)); 110 % of control (dose: 400.0 mg/kg/injection, schedule: Q04DX003 (ip), vehicle: Klucel (hydroxypropylcellulose) (HPC)).
As for `[Cl][Pd][Cl].[NH-]CC[NH-]`, the T/C by setting is: (dose: 6.0 mg/kg/injection, schedule: Q01DX009 (ip), vehicle: saline with Tween-80) 104 % of control; (dose: 12.0 mg/kg/injection, schedule: Q01DX009 (ip), vehicle: saline with Tween-80) 104 % of control; (dose: 25.0 mg/kg/injection, schedule: Q01DX009 (ip), vehicle: saline with Tween-80) 100 % of control; under setting [11], 118 % of control; under setting [12], 100 % of control; (dose: 200.0 mg/kg/injection, schedule: Q04DX003 (ip), vehicle: saline with Tween-80) 118 % of control. For the same compound, under “dose: 400.0 mg/kg/injection, schedule: Q04DX003 (ip), vehicle: saline with Tween-80”, the T/C is 113 % of control.
In the case of `CCCCCCCCCCCCNCc1ccc(O)cc1`, the T/C is, setting by setting: (dose: 25.0 mg/kg/injection, schedule: Q04DX003 (ip), vehicle: saline with Tween-80) 104 % of control; (dose: 50.0 mg/kg/injection, schedule: Q04DX003 (ip), vehicle: saline with Tween-80) 100 % of control; under setting [12], 108 % of control.
Take `C[n+]1c2ccccc2c(Nc2ccc(NS(=O)(=O)CCCCN=C(N)N)cc2)c2ccc(N)cc21`: the T/C (dose: 3.0 mg/kg/injection, schedule: Q01DX009 (ip), vehicle: water) was 205 % of control and the T/C (dose: 6.0 mg/kg/injection, schedule: Q01DX009 (ip), vehicle: water) is 116 % of control.
As to `COc1cc(C2NC(=O)C(C#N)=C(Nc3cccc(C)c3)S2)ccc1O` (configuration not stated), the T/C runs as follows: (dose: 50.0 mg/kg/injection, schedule: Q01DX009 (ip), vehicle: saline with Tween-80) 101 % of control; under setting [11], 114 % of control; under setting [10], 119 % of control.
On to `CC(CCC(=O)NC12CC3CC(CC(C3)C1)C2)C1CCC2C3C(OC=O)CC4CC(OC=O)CCC4(C)C3CC(OC=O)C12C` (configuration not stated), for which the T/C by setting is: (dose: 12.5 mg/kg/injection, schedule: Q04DX002 (ip), vehicle: saline with Tween-80) 98 % of control; (dose: 25.0 mg/kg/injection, schedule: Q04DX002 (ip), vehicle: saline with Tween-80) 100 % of control; (dose: 50.0 mg/kg/injection, schedule: Q04DX002 (ip), vehicle: saline with Tween-80) 100 % of control; (dose: 200.0 mg/kg/injection, schedule: Q04DX002 (ip), vehicle: saline with Tween-80) 88 % of control; (dose: 400.0 mg/kg/injection, schedule: Q04DX002 (ip), vehicle: saline with Tween-80) 98 % of control.
`CCOC(=O)CNC(=O)CCCCSc1ncnc2nc[nH]c12`: the T/C by setting is: (dose: 20.0 mg/kg/injection, schedule: Q01DX009 (ip), vehicle: Klucel (hydroxypropylcellulose) (HPC)) 97 % of control and 98 % of control; (dose: 40.0 mg/kg/injection, schedule: Q01DX009 (ip), vehicle: Klucel (hydroxypropylcellulose) (HPC)) 91 % of control; (dose: 80.0 mg/kg/injection, schedule: Q01DX009 (ip), vehicle: Klucel (hydroxypropylcellulose) (HPC)) 101 % of control and 111 % of control; (dose: 160.0 mg/kg/injection, schedule: Q01DX009 (ip), vehicle: Klucel (hydroxypropylcellulose) (HPC)) 89 % of control and 100 % of control; (dose: 320.0 mg/kg/injection, schedule: Q01DX009 (ip), vehicle: Klucel (hydroxypropylcellulose) (HPC)) 87 % of control and 89 % of control; (dose: 640.0 mg/kg/injection, schedule: Q01DX009 (ip), vehicle: Klucel (hydroxypropylcellulose) (HPC)) 86 % of control.
As for `Cc1noc(N)c1[N+](=O)[O-]`, the T/C is 95 % of control under setting [4], 109 % of control under setting [5] and 109 % of control under setting [9].
With `COc1cc(O)c2c(c1)OC(c1ccc(OC)c(O)c1)CC2=O` (configuration not stated), the T/C is 117 % of control (dose: 12.5 mg/kg/injection, schedule: Q01DX009 (ip), vehicle: alcohol); 109 % of control (dose: 50.0 mg/kg/injection, schedule: Q01DX009 (ip), vehicle: alcohol); 92 % of control (dose: 100.0 mg/kg/injection, schedule: Q01DX009 (ip), vehicle: alcohol).
In the case of `CS(=O)(=O)NC(=O)NC(=S)c1ccccc1`, the T/C runs as follows: (dose: 100.0 mg/kg/injection, schedule: Q01DX001 (ip), vehicle: saline with Tween-80) 100 % of control; (dose: 200.0 mg/kg/injection, schedule: Q01DX001 (ip), vehicle: saline with Tween-80) 100 % of control; (dose: 400.0 mg/kg/injection, schedule: Q01DX001 (ip), vehicle: saline with Tween-80) 108 % of control.
Take `CN(CCCl)Cc1ccccc1`: the T/C by setting is: (dose: 0.04 mg/kg/injection, schedule: Q01DX009 (ip), vehicle: saline) 95 % of control; (dose: 0.07 mg/kg/injection, schedule: Q01DX009 (ip), vehicle: saline) 87 % of control; (dose: 22.0 mg/kg/injection, schedule: Q04DX003 (ip), vehicle: saline) 104 % of control; (dose: 25.0 mg/kg/injection, schedule: Q04DX003 (ip), vehicle: saline) 109 % of control; (dose: 33.0 mg/kg/injection, schedule: Q01DX009 (ip), vehicle: saline sonified) 116 % of control; (dose: 35.0 mg/kg/injection, schedule: Q04DX003 (ip), vehicle: saline) 109 % of control. Besides, the T/C (dose: 50.0 mg/kg/injection, schedule: Q01DX009 (ip), vehicle: saline sonified) was 120 % of control; the T/C under setting [5] is 210 % of control; the T/C (dose: 75.0 mg/kg/injection, schedule: Q01DX009 (ip), vehicle: saline sonified) is 195 % of control; the T/C under setting [9] was 155 % of control; the T/C (dose: 150.0 mg/kg/injection, schedule: Q04DX003 (ip), vehicle: saline) is 175 % of control.
On to `CC(=O)Nc1c(Cl)c(Cl)c2c(c1Cl)Cc1cc(Br)ccc1-2`, for which the T/C was 100 % of control and 113 % of control (dose: 8.25 mg/kg/injection, schedule: Q01DX009 (ip), vehicle: Klucel (hydroxypropylcellulose) (HPC)); 100 % of control and 118 % of control (dose: 12.5 mg/kg/injection, schedule: Q01DX009 (ip), vehicle: Klucel (hydroxypropylcellulose) (HPC)); 100 % of control and 109 % of control (dose: 18.75 mg/kg/injection, schedule: Q01DX009 (ip), vehicle: Klucel (hydroxypropylcellulose) (HPC)); 110 % of control (dose: 25.0 mg/kg/injection, schedule: Q01DX009 (ip), vehicle: Klucel (hydroxypropylcellulose) (HPC)); 90 % of control under setting [4]; 95 % of control under setting [5].
For `CC(C)CSC(C)C`, the T/C by setting is: under setting [4], 110 % of control; under setting [5], 110 % of control; under setting [9], 110 % of control.
